In ChEMBL document CHEMBL5226333, “Targeting Autophagy-Related Epigenetic Regulators for Cancer Drug Discovery” (J Med Chem, 2021):

Experiments:
[1] = Inhibition of GST-tagged […] human GLP (610 to 917 residues) methylation activity expressed in Escherichia coli BL21 assessed as reduction in H3K9me3 level using H3(1 to 20 residues)-cys-biotin and SAM as substrate incubated for 60 mins by Dissociation enhanced lanthanide fluoro-immuno assay
[2] = Cmax in Swiss albino mouse plasma at 50 mg/kg,po and measured after 24 hrs; format: ADME, organism-based; set-up: time 24 hrs, dose 50 mg/kg, route po; details: in vivo
[3] = target: Histone-lysine N-methyltransferase EZH2 (Homo sapiens, UniProt Q15910); experiment: Inhibition of EZH2 (unknown origin) in PRC2 complex using H3 (1 to 24 residues) and 3H-SAM as substrate incubated for 1 hrs by Scintillation proximity assay
Sequence of Histone-lysine N-methyltransferase EZH2 (Q15910 whole entry, the tested form may be a part): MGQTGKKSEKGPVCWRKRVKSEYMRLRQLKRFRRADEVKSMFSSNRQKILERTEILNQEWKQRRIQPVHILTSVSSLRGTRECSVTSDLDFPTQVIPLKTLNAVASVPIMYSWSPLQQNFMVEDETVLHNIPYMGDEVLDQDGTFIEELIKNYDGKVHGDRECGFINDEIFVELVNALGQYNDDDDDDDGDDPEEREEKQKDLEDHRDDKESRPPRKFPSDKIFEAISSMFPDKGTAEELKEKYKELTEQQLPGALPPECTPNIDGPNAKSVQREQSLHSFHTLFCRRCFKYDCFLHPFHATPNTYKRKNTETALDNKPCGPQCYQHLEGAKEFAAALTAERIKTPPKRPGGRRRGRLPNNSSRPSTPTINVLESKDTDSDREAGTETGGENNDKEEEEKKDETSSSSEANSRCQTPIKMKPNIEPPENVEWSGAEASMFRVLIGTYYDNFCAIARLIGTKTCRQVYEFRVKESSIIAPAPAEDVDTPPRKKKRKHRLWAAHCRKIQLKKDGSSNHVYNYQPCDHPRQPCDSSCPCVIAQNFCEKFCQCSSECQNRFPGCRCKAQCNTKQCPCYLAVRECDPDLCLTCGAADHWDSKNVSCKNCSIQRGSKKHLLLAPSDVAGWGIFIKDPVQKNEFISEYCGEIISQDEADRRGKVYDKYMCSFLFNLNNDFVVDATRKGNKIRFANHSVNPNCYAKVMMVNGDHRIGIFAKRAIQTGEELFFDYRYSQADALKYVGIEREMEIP

IC50 [1]	Cmax [2]	IC50 [3]	Compound
38 µM	–	–	COc1cc2nc(N3CCCN(C)CC3)nc(NC3CCN(Cc4ccccc4)CC3)c2cc1OC
–	4.7 µM	< 0.01 µM	CCCc1cc(C)[nH]c(=O)c1CNC(=O)c1cc(-c2ccc(N3CCN(C(C)C)CC3)nc2)cc2c1cnn2C(C)C
